#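 The compound was tested at five concentrations on cells cultured in 96-well plates, with a 48-hour exposure period. Here, GI50 denotes the concentration required for 50% inhibition of growth. TGI is the concentration that stops growth completely.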
# What was measured:
# Experiment in all cases: NCI-60 cell line screen, 48 h
# [1] = system: SW-620 colon
# [2] = system: MDA-MB-435
# [3] = system: MOLT-4 leukemia
# [4] = system: SNB-19 CNS
# [5] = system: EKVX NSCLC
# [6] = system: SR leukemia
# [7] = system: LOX IMVI melanoma
# [8] = system: UACC-257 melanoma
# [9] = system: T-47D breast
# [10] = system: ACHN renal
# [11] = system: TK-10 renal
# [12] = system: SK-MEL-28 melanoma
# [13] = system: SNB-75 CNS
# [14] = system: 786-0 renal
# [15] = system: M14 melanoma
# [16] = system: CCRF-CEM leukemia
# [17] = system: OVCAR-3 ovarian
# [18] = system: MCF7 breast
# [19] = system: PC-3 prostate
# [20] = system: KM12 colon
# [21] = system: MDA-MB-231 breast
# [22] = system: NCI-H226 lung
# [23] = system: SF-268 CNS
# [24] = system: OVCAR-4 ovarian
# [25] = system: OVCAR-8 ovarian
# [26] = system: RXF 393 renal
# [27] = system: HL-60(TB) leukemia
# [28] = system: A549 NSCLC
# [29] = system: DU-145 prostate
# [30] = system: NCI-H460 lung
# [31] = system: MALME-3M melanoma
# [32] = system: HOP-92 NSCLC
# [33] = system: HCT-15 colon
# [34] = system: A498 renal
# [35] = system: NCI-H522 lung
# [36] = system: K-562 leukemia
# [37] = system: U251 CNS
# [38] = system: HT29 colon
# [39] = system: COLO 205 colon
# [40] = system: SF-295 CNS
# [41] = system: BT-549 breast
# [42] = system: HOP-62 NSCLC
# [43] = system: OVCAR-5 ovarian
# [44] = system: IGROV1 ovarian
# [45] = system: SK-MEL-2 melanoma
# [46] = system: UACC-62 melanoma
# [47] = system: SK-MEL-5 melanoma
# [48] = system: NCI/ADR-RES ovarian
# [49] = system: NCI-H23 lung
# [50] = system: UO-31 renal
# [51] = system: SF-539 CNS
# [52] = system: SK-OV-3 ovarian
# [53] = system: HCT-116 colon
# [54] = system: RPMI-8226 leukemia
# [55] = system: SN12C renal
# [56] = system: HS 578T breast
# [57] = system: HCC-2998 colon
# [58] = system: CAKI-1 renal
smiles,measurement,setting,value
COC(=O)C1=CN(CC2=CC(=O)C(C)=CC2=O)C=C(C(=O)OC)C1c1cc(OC)ccc1OC,GI50,[1],3.38 µM
same,TGI,[1],11.6 µM
same,GI50,[2],16.7 µM
same,TGI,[2],31.2 µM
same,GI50,[3],2.21 µM
same,GI50,[4],14.1 µM
same,TGI,[4],48.1 µM
same,GI50,[5],16 µM
same,TGI,[5],31.8 µM
same,GI50,[6],2.59 µM
same,TGI,[6],> 22.3 µM
same,GI50,[7],13.7 µM
same,TGI,[7],26.6 µM
same,GI50,[8],14.1 µM
same,TGI,[8],27.4 µM
same,GI50,[9],3.03 µM
same,TGI,[9],> 100 µM
same,GI50,[10],1.85 µM
same,TGI,[10],3.87 µM
same,GI50,[11],10.7 µM
same,TGI,[11],36.8 µM
same,GI50,[12],15.4 µM
same,TGI,[12],40.5 µM
same,GI50,[13],25.4 µM
same,TGI,[13],74.1 µM
same,GI50,[14],2.28 µM
same,TGI,[14],5.54 µM
same,GI50,[15],12.1 µM
same,TGI,[15],26.5 µM
same,GI50,[16],1.73 µM
same,TGI,[16],3.61 µM
same,GI50,[17],12.5 µM
same,TGI,[17],29.2 µM
same,GI50,[18],22.7 µM
same,TGI,[18],> 92.2 µM
same,GI50,[19],9.42 µM
same,TGI,[19],24.7 µM
same,GI50,[20],16.1 µM
same,TGI,[20],31.7 µM
same,GI50,[21],15.7 µM
same,TGI,[21],30.2 µM
same,GI50,[22],20.1 µM
same,TGI,[22],54.3 µM
same,GI50,[23],13.8 µM
same,TGI,[23],31.3 µM
same,GI50,[24],12.5 µM
same,TGI,[24],30.9 µM
same,GI50,[25],12.9 µM
same,TGI,[25],38.4 µM
same,GI50,[26],3 µM
same,TGI,[26],11.6 µM
same,GI50,[27],6.8 µM
same,TGI,[27],99.4 µM
same,GI50,[28],13.5 µM
same,TGI,[28],31.2 µM
same,GI50,[29],13.8 µM
same,TGI,[29],26.8 µM
same,GI50,[30],20.4 µM
same,TGI,[30],> 95.8 µM
same,GI50,[31],20 µM
same,TGI,[31],36 µM
same,GI50,[32],0.658 µM
same,TGI,[32],11.9 µM
same,GI50,[33],13.5 µM
same,TGI,[33],30 µM
same,GI50,[34],15 µM
same,TGI,[34],29.7 µM
same,GI50,[35],18.9 µM
same,TGI,[35],> 56.2 µM
same,GI50,[36],3.85 µM
same,GI50,[37],6.87 µM
same,TGI,[37],20.2 µM
same,GI50,[38],4.71 µM
same,TGI,[38],> 100 µM
same,GI50,[39],8.56 µM
same,TGI,[39],30.6 µM
same,GI50,[40],18.5 µM
same,TGI,[40],38 µM
same,GI50,[41],17.1 µM
same,TGI,[41],41.7 µM
same,GI50,[42],19.9 µM
same,TGI,[42],38 µM
same,GI50,[43],13.9 µM
same,TGI,[43],28 µM
same,GI50,[44],16.6 µM
same,TGI,[44],43.1 µM
same,GI50,[45],24 µM
same,TGI,[45],> 73 µM
same,GI50,[46],13.3 µM
same,TGI,[46],26.4 µM
same,GI50,[47],14.8 µM
same,TGI,[47],29.1 µM
same,GI50,[48],15.7 µM
same,TGI,[48],39.2 µM
same,GI50,[49],13.4 µM
same,TGI,[49],28.6 µM
same,GI50,[50],4.94 µM
same,TGI,[50],9.44 µM
same,GI50,[51],16.6 µM
same,TGI,[51],31.9 µM
same,GI50,[52],23 µM
same,TGI,[52],> 54.8 µM
same,GI50,[53],1.87 µM
same,TGI,[53],3.28 µM
same,GI50,[54],1.9 µM
same,TGI,[54],4.83 µM
same,GI50,[55],16 µM
same,TGI,[55],33.2 µM
same,GI50,[56],4.54 µM
same,TGI,[56],27.3 µM
same,GI50,[57],5.79 µM
same,TGI,[57],13.4 µM
same,GI50,[58],6.38 µM
same,TGI,[58],13.5 µM

# Source: PubChem BioAssay (NCI)
